Where a SMILES comes first, the peptide text is derived from it. Where no end group is shown, it is not given here. [ ]: non-standard residue; d: D form. 3Abz = Nc1cccc(C(=O)O)c1; 4Abz = Nc1ccc(C(=O)O)cc1; 2Abz = Nc1ccccc1C(=O)O; Aib = CC(C)(N)C(=O)O
Tests used:
[1] = molecular target: T1, preformed fibrils of hIAPP (Homo sapiens, UniProt P10997); assay: Time dependent Thioflavin T assay, disruption of preformed fibrils of hIAPP; type: biochemical; settings: 10-fold molar excess added at 48 h to hIAPP 40 μM preincubated in PBS pH 7.4, 37 °C; total 7 (2 + 5) days; average of 3 replica
T1 construct: 3.1 mg of hIAPP(1-37) was dissolved in 50 μL of HFIP
T1 sequence (P10997 34-70): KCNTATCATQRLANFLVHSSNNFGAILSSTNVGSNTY
Method: We already observed that the BSBHps (3, 4, 7, and 8) were efficient inhibitors. Further, we investigated the ability of those molecules to disrupt preformed fibrils of hIAPP in vitro. From the ThT assay (black, Fig. 2a), we observed that hIAPP fibrillzation was maximum at ~45–50 h. Therefore, we designed an experiment where the BSBHps were added into the preformed fibrillar assembly at 48 h (2 days). The hIAPP was incubated alone in PBS pH 7.4 at 37 °C for 48 h (2 days) and then varied molar excess (2-, 5-, and 10-fold) of designed peptidomimetics were added to it and fibril disruption was monitored by various biophysical tools.
(§1) 3.1 mg of hIAPP(1-37) was dissolved in 50 μL of HFIP to obtain disaggregated hIAPP and HFIP was evaporated using nitrogen gas[43]. This process was repeated twice. Then, 5 mL of Milli Q water was added to the disaggregated material and divided the whole solution into 25 equal portions with 200 μL each. All 25 portions are lyophilized followed by addition of 800 μL of PBS (50 mM, pH 7.4) to each portion to obtain a final hIAPP concentration of 40 μM.
(§2) 50 μM Thioflavin T (ThT) in PBS (50 mM, pH 7.4) was prepared. All the synthesized peptides and hIAPP (alone and in some cases mixed with breaker peptides) were dissolved in PBS (50 mM, pH 7.4) to obtain a desired stock solution (40 μM in the case of hIAPP) and incubated at 37 °C over a water bath. To perform the fluorescence study, 40 μL of sample was taken out from the stock solution and was mixed with 200 μL of ThT solution (50 μM); final volume was made up to 400 μL with PBS. For ThT fluorescence assay, emission was measured at 490 nm and excitation at 435 nm, using a slit of 3 nm on a Fluoromax-4, Horiba instrument. The text files were taken from the instrument and graphs were plotted using OriginPro 8 software. For each data point 3 different sets of replica were scanned separately and average was taken with observed standard deviation.

hIAPP1-37 = molecular target: T2, hIAPP1-37 (Homo sapiens, UniProt P10997); assay: Time dependent Thioflavin T assay, inhibition of amyloid formation of hIAPP; type: biochemical; settings: 10-fold molar excess of peptidomimetic co-incubated with hIAPP 40 μM, PBS pH 7.4, 37 °C, up to 7 days; average of 3 replica
T2 construct: 3.1 mg of hIAPP(1-37) was dissolved in 50 μL of HFIP
T2 sequence (P10997 34-70): T1 sequence (P10997 34-70)
Method: To examine the inhibitory efficacy of the single breaker element (I26X) containing BSBHps (3, 4 and 5), we performed various biophysical studies in absence and presence of BSBHps and compared the effect with that of the control 2. The BSBHps and the control were co-incubated with hIAPP in PBS pH 7.4 at 37 °C up to 7 days and the kinetics of the amyloid formation was monitored using various biophysical tools. To investigate dose dependence, 2-, 5- and 10-fold molar excess of peptidomimetics were incubated with hIAPP.
as §1, §2

[2] = Stability in presence of human serum (proteolytic enzymes); type: in vitro ADME; settings: RPMI 1640 with 10% human serum (v/v), 37 °C, 15 min pre-incubation, 10 μL of 5 mg/mL DMSO stock in 1 mL, RP-HPLC and mass spectrometry
Description: Further, to test the stability of these peptidommetics in biological system we performed in vitro stability study in presence of human serum[37][38] which contained sufficient concentration of proteolytic enzymes. We selected BSBHPs 3 and 7, as from the results of all the experiments described above it was clear that BSBHps 3 (one breaker element containing) and 7 (two breaker elements containing) were the best among all the synthesized peptidomimetics. We compared the stability of 3 and 7 with their native peptide analogue (1) using time dependent HPLC & Mass spectrometry studies.
1 mL of the RPMI (Roswell Park Memorial Institute) 1640 media supplemented with 10% human serum (v/v) obtained from Thermo Fisher Scientific was taken in three different 2 mL eppendorf tube and incubated them at 37 °C for 15 min[38]. Then, 10 μL of the peptidomimetics (1, 3 & 7) in DMSO (5 mg/mL) were separately added to the RPMI media and incubated them at 37 °C. At different time interval 100 μL of the aliquot was taken out from the three different eppendorf tubes and added to 200 μL ethanol solution (96% aqueous ethanol) for precipitation of the serum protein. The precipitate was cooled (4 °C) for 10 min and then centrifuged at 18,000 rpm for 2 min and the pellet was discarded. The supernatant was collected and analyzed by RP-HPLC & Mass spectrometry. A linear gradient was used in the HPLC, from 5–100% CH3CN for 18 min followed by 100% CH3CN till 20 min with a flow rate of 4 mL/min using a semi-preparative C18-μ Bondapak column. Binary solvent system were used, solvent A (0.1% TFA in H2O) and solvent B (0.1% TFA in CH3CN).

[3] = Carboxyfluorescein dye leakage assay; settings: sample 2: hIAPP incubated for 12 h; LUVs DPPC:cholesterol:GM1 68:30:2, 50 mM HEPES pH 7.4; peptide:lipid 1:20; 0 to 100 min
Method: The hIAPP soluble oligomers are known as more toxic than the matured amyloid, since they can damage the cell by forming pores on the cell membrane. […] To perform the vesicle leakage study, we have prepared 9 sets of different samples including untreated LUVs (without any peptide) as control for the experiment. All the peptidomimetics were added to hIAPP solution after 48 h of incubation and kept for total of 7 days (168 h = 48 h + 120 h) of incubation. After that different peptide solutions were added separately to the LUVs and leakage studies were performed. The different type of samples that were prepared is described below;
The peptide and the lipid were present in 1:20 molar ratios during leakage analysis. At the end of the experiment 10 μL of Triton X-100 was added to obtain complete dye release from the vesicle and the final fluorescence was measured. In addition to those, untreated LUVs (natural dye leakage) were studied and used as control. % dye leakage was calculated as[35],
The LUVs were prepared using three different lipids, DPPC, Cholesterol and GM1 with 68:30:2 molar ratios in 50 mM HEPES buffer of pH 7.4. Prior to the LUVs preparation, all the lipids were taken in clean glass vessel and solubilize to make 2 mM stock solution in chloroform and methanol (2:1) and the solvents were evaporated under vacuum. […]

| Compound | Disruption of preformed hIAPP amyloid (ThT assay) [1] | Inhibition of hIAPP amyloid formation (suppression of ThT fluorescence intensity) (hIAPP1-37) | further results |
| --- | --- | --- | --- |
| CC(C)C[C@H](NC(=O)C(C)(C)NC(=O)[C@H](C)NC(=O)CNC(=O)[C@H](Cc1ccccc1)NC(=O)[C@@H](N)CC(N)=O)C(N)=O [Peptide 2] (H-NFGA[Aib]L-NH2) | ~ 23% | ~ 40% |  |
| CC(C)C[C@H](NC(=O)c1ccccc1NC(=O)[C@H](C)NC(=O)CNC(=O)[C@H](Cc1ccccc1)NC(=O)[C@@H](N)CC(N)=O)C(N)=O [Peptide 3] (H-NFGA[2Abz]L-NH2) | ~ 40% | ~ 55% | Degradation in presence of human serum at 25 h [2]: some degradation |
| CC(C)C[C@H](NC(=O)c1cccc(NC(=O)[C@H](C)NC(=O)CNC(=O)[C@H](Cc2ccccc2)NC(=O)[C@@H](N)CC(N)=O)c1)C(N)=O [Peptide 4] (H-NFGA[3Abz]L-NH2) | ~ 33% | ~ 50% |  |
| CC(C)C[C@H](NC(=O)c1ccc(NC(=O)[C@H](C)NC(=O)CNC(=O)[C@H](Cc2ccccc2)NC(=O)[C@@H](N)CC(N)=O)cc1)C(N)=O [Peptide 5] (H-NFGA[4Abz]L-NH2) |  |  | Enhancement of ThT fluorescence intensity of hIAPP (hIAPP1-37): ~ 5% |
| CC(C)C[C@H](NC(=O)C(C)(C)NC(=O)[C@H](C)NC(=O)C(C)(C)NC(=O)[C@H](Cc1ccccc1)NC(=O)[C@@H](N)CC(N)=O)C(N)=O [Peptide 6] (H-NF[Aib]A[Aib]L-NH2) | ~ 40% | ~ 52% |  |
| CC(C)C[C@H](NC(=O)c1ccccc1NC(=O)[C@H](C)NC(=O)c1ccccc1NC(=O)[C@H](Cc1ccccc1)NC(=O)[C@@H](N)CC(N)=O)C(N)=O [Peptide 7] (H-NF[2Abz]A[2Abz]L-NH2) | ~ 57% | ~ 70% | Degradation in presence of human serum at 25 h [2]: complete retention of the peak |
| CC(C)C[C@H](NC(=O)c1cccc(NC(=O)[C@H](C)NC(=O)c2cccc(NC(=O)[C@H](Cc3ccccc3)NC(=O)[C@@H](N)CC(N)=O)c2)c1)C(N)=O [Peptide 8] (H-NF[3Abz]A[3Abz]L-NH2) | ~ 44% | ~ 65% |  |
| CC(C)C[C@H](NC(=O)c1ccc(NC(=O)[C@H](C)NC(=O)c2ccc(NC(=O)[C@H](Cc3ccccc3)NC(=O)[C@@H](N)CC(N)=O)cc2)cc1)C(N)=O [Peptide 9] (H-NF[4Abz]A[4Abz]L-NH2) |  |  | Enhancement of ThT fluorescence intensity of hIAPP (hIAPP1-37): ~ 12% |
| CC[C@H](C)[C@H](NC(=O)[C@H](C)NC(=O)CNC(=O)[C@H](Cc1ccccc1)NC(=O)[C@H](CC(N)=O)NC(=O)[C@H](CC(N)=O)NC(=O)[C@H](CO)NC(=O)[C@H](CO)NC(=O)[C@H](Cc1c[nH]cn1)NC(=O)[C@@H](NC(=O)[C@H](CC(C)C)NC(=O)[C@H](Cc1ccccc1)NC(=O)[C@H](CC(N)=O)NC(=O)[C@H](C)NC(=O)[C@H](CC(C)C)NC(=O)[C@H](CCCNC(=N)N)NC(=O)[C@H](CCC(N)=O)NC(=O)[C@@H](NC(=O)[C@H](C)NC(=O)[C@@H]1CSSC[C@H](NC(=O)[C@@H](N)CCCCN)C(=O)N[C@@H](CC(N)=O)C(=O)N[C@@H]([C@@H](C)O)C(=O)N[C@@H](C)C(=O)N[C@@H]([C@@H](C)O)C(=O)N1)[C@@H](C)O)C(C)C)C(=O)N[C@@H](CC(C)C)C(=O)N[C@@H](CO)C(=O)N[C@@H](CO)C(=O)N[C@H](C(=O)N[C@@H](CC(N)=O)C(=O)N[C@H](C(=O)NCC(=O)N[C@@H](CO)C(=O)N[C@@H](CC(N)=O)C(=O)N[C@H](C(=O)N[C@@H](Cc1ccc(O)cc1)C(N)=O)[C@@H](C)O)C(C)C)[C@@H](C)O [hIAPP] |  |  | Dye leakage of LUVs treated with hIAPP [3]: rapid increment of dye leakage |
| NFGAIL-NH2 [Peptide 1, reference compound] |  |  | Degradation in presence of human serum after 1 h ([2]; after 1 h): complete degradation |
